Reference: PMC11968843, “Sulphostin-inspired N-phosphonopiperidones as selective covalent DPP8 and DPP9 inhibitors” (Nature Communications, 2025)

Key:
Assay in all cases: Competitive ABPP / direct target identification with alkyne probe 9 in HEK293 cell lysates
Type in all cases: binding, H. sapiens
[1] = biological target: T1, HEK293 cell lysates (proteome-wide targets of probe 9) (Homo sapiens, UniProt P08758); settings: protein ANXA5
T1 construct: endogenous in cells; host or cells: HEK293 cell lysate

[2] = biological target: T2, HEK293 cell lysates (proteome-wide targets of probe 9) (Homo sapiens, UniProt Q14974); settings: protein KPNB1
T2 construct: endogenous in cells; host or cells: HEK293 cell lysate

[3] = biological target: T3, HEK293 cell lysates (proteome-wide targets of probe 9) (Homo sapiens, UniProt P11498); settings: protein PC
T3 construct: endogenous in cells; host or cells: HEK293 cell lysate

[4] = biological target: T4, HEK293 cell lysates (proteome-wide targets of probe 9) (Homo sapiens, UniProt P42704); settings: protein LRPPRC
T4 construct: endogenous in cells; host or cells: HEK293 cell lysate

[5] = biological target: T5, HEK293 cell lysates (proteome-wide targets of probe 9) (Homo sapiens, UniProt P60866); settings: protein RPS20
T5 construct: endogenous in cells; host or cells: HEK293 cell lysate

[6] = biological target: T6, HEK293 cell lysates (proteome-wide targets of probe 9) (Homo sapiens, UniProt Q01469); settings: protein FABP5
T6 construct: endogenous in cells; host or cells: HEK293 cell lysate

[7] = biological target: T7, HEK293 cell lysates (proteome-wide targets of probe 9) (Homo sapiens, UniProt Q02878); settings: protein RPL6
T7 construct: endogenous in cells; host or cells: HEK293 cell lysate

[8] = test system: HEK293 cell lysates (proteome-wide targets of probe 9)
[9] = biological target: T8, HEK293 cell lysates (proteome-wide targets of probe 9) (Homo sapiens, UniProt P08865); settings: protein RPSA
T8 construct: endogenous in cells; host or cells: HEK293 cell lysate

[10] = biological target: T9, HEK293 cell lysates (proteome-wide targets of probe 9) (Homo sapiens, UniProt P05455); settings: protein SSB
T9 construct: endogenous in cells; host or cells: HEK293 cell lysate

[11] = biological target: T10, HEK293 cell lysates (proteome-wide targets of probe 9) (Homo sapiens, UniProt P09211); settings: protein GSTP1
T10 construct: endogenous in cells; host or cells: HEK293 cell lysate

[12] = biological target: T11, HEK293 cell lysates (proteome-wide targets of probe 9) (Homo sapiens, UniProt P19338); settings: protein NCL
T11 construct: endogenous in cells; host or cells: HEK293 cell lysate

[13] = biological target: T12, HEK293 cell lysates (proteome-wide targets of probe 9) (Homo sapiens, UniProt P63104); settings: protein YWHAZ
T12 construct: endogenous in cells; host or cells: HEK293 cell lysate

[14] = biological target: T13, HEK293 cell lysates (proteome-wide targets of probe 9) (Homo sapiens, UniProt P60174); settings: protein TPI1
T13 construct: endogenous in cells; host or cells: HEK293 cell lysate

[15] = biological target: T14, HEK293 cell lysates (proteome-wide targets of probe 9) (Homo sapiens, UniProt P08238); settings: protein HSP90AB1
T14 construct: endogenous in cells; host or cells: HEK293 cell lysate

[16] = biological target: T15, HEK293 cell lysates (proteome-wide targets of probe 9) (Homo sapiens, UniProt P40926); settings: protein MDH2
T15 construct: endogenous in cells; host or cells: HEK293 cell lysate

[17] = biological target: T16, HEK293 cell lysates (proteome-wide targets of probe 9) (Homo sapiens, UniProt P61247); settings: protein RPS3A
T16 construct: endogenous in cells; host or cells: HEK293 cell lysate

[18] = biological target: T17, HEK293 cell lysates (proteome-wide targets of probe 9) (Homo sapiens, UniProt P14618); settings: protein PKM
T17 construct: endogenous in cells; host or cells: HEK293 cell lysate

[19] = biological target: T18, HEK293 cell lysates (proteome-wide targets of probe 9) (Homo sapiens, UniProt P00338); settings: protein LDHA
T18 construct: endogenous in cells; host or cells: HEK293 cell lysate

[20] = biological target: T19, HEK293 cell lysates (proteome-wide targets of probe 9) (Homo sapiens, UniProt Q7Z5P9); settings: protein MUC19
T19 construct: endogenous in cells; host or cells: HEK293 cell lysate

[21] = biological target: T20, HEK293 cell lysates (proteome-wide targets of probe 9) (Homo sapiens, UniProt P06748); settings: protein NPM1
T20 construct: endogenous in cells; host or cells: HEK293 cell lysate

[22] = biological target: T21, HEK293 cell lysates (proteome-wide targets of probe 9) (Homo sapiens, UniProt P62937); settings: protein PPIA
T21 construct: endogenous in cells; host or cells: HEK293 cell lysate

[23] = biological target: T22, HEK293 cell lysates (proteome-wide targets of probe 9) (Homo sapiens, UniProt P46782); settings: protein RPS5
T22 construct: endogenous in cells; host or cells: HEK293 cell lysate

[24] = biological target: T23, HEK293 cell lysates (proteome-wide targets of probe 9) (Homo sapiens, UniProt P22234); settings: protein PAICS
T23 construct: endogenous in cells; host or cells: HEK293 cell lysate

[25] = biological target: T24, HEK293 cell lysates (proteome-wide targets of probe 9) (Homo sapiens, UniProt P52292); settings: protein KPNA2
T24 construct: endogenous in cells; host or cells: HEK293 cell lysate

[26] = protein HIST1H1C;HIST1H1E;HIST1H1D
[27] = protein group Histone H2A type 1 (HIST1H2AG and others)

T20 sequence (P06748 whole entry): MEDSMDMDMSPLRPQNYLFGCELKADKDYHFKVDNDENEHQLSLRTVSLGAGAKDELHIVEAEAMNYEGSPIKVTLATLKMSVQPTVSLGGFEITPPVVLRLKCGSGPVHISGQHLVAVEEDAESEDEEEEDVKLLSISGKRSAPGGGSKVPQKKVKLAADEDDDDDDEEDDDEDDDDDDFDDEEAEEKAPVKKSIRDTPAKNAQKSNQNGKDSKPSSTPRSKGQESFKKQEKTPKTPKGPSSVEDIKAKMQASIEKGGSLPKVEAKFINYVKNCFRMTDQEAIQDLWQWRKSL
T15 sequence (P40926 25-338): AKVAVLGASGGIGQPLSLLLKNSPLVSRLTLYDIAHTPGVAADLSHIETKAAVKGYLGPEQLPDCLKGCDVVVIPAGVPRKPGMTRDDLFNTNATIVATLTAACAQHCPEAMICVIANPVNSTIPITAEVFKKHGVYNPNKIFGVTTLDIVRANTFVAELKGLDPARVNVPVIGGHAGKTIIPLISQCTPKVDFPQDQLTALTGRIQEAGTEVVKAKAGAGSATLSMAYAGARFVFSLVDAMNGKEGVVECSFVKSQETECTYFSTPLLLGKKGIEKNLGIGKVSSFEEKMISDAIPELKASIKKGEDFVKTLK
T12 sequence (P63104 whole entry): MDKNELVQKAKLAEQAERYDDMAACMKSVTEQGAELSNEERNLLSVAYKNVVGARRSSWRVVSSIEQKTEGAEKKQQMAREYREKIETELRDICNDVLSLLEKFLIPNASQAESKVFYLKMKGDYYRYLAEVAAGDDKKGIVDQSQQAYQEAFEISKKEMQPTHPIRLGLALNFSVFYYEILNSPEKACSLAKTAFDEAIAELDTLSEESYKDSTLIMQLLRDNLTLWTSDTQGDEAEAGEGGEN
T21 sequence (P62937 whole entry): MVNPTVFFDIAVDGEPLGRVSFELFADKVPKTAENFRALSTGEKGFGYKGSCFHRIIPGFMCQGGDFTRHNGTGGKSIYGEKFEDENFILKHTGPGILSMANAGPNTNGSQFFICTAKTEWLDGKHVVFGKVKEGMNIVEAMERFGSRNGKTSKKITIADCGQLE
T3 sequence (P11498 21-1178): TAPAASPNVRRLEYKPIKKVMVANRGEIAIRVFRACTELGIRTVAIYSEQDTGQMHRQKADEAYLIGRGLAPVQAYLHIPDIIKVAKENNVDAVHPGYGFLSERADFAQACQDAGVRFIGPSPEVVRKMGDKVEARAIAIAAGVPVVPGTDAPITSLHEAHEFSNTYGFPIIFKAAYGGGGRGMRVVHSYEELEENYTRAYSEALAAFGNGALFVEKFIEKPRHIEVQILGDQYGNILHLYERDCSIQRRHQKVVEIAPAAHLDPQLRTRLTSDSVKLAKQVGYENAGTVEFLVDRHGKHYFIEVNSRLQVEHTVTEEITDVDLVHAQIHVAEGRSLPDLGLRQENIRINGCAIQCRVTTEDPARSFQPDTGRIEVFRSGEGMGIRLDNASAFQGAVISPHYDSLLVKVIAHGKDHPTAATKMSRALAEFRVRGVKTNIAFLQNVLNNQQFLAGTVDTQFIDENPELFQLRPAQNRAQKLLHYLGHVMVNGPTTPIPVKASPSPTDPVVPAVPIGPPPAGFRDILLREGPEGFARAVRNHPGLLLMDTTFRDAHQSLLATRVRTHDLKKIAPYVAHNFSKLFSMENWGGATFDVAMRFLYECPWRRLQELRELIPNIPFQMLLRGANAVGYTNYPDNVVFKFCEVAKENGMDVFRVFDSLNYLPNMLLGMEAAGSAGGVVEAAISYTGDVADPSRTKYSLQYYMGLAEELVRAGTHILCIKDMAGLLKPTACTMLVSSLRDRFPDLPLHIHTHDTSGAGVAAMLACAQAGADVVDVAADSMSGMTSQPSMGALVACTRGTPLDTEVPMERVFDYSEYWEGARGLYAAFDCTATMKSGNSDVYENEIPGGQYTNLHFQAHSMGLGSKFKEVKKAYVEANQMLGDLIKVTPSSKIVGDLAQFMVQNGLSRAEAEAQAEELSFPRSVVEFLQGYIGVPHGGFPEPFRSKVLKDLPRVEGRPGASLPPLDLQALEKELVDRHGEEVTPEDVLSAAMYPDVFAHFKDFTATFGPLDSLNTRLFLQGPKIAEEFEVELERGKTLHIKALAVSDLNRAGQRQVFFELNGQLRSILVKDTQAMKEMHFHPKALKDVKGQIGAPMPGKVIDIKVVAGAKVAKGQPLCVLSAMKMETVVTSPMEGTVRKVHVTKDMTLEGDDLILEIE
T13 sequence (P60174 whole entry): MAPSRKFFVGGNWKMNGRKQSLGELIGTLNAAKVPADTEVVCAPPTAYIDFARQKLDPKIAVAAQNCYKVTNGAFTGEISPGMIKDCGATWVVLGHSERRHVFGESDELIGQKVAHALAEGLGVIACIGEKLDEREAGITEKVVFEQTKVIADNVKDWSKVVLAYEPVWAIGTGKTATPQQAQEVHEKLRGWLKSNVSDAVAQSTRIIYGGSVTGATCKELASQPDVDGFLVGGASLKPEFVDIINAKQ
T1 sequence (P08758 whole entry): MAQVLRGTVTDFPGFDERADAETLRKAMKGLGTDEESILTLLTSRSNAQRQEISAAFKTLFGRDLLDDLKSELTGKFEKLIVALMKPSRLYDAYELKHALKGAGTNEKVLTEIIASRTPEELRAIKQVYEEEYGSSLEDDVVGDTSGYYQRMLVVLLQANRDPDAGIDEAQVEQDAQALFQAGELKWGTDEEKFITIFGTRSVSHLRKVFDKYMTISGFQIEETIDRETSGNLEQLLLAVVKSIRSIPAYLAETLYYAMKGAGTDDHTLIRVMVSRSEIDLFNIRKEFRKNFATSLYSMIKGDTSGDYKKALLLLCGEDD
T11 sequence (P19338 whole entry): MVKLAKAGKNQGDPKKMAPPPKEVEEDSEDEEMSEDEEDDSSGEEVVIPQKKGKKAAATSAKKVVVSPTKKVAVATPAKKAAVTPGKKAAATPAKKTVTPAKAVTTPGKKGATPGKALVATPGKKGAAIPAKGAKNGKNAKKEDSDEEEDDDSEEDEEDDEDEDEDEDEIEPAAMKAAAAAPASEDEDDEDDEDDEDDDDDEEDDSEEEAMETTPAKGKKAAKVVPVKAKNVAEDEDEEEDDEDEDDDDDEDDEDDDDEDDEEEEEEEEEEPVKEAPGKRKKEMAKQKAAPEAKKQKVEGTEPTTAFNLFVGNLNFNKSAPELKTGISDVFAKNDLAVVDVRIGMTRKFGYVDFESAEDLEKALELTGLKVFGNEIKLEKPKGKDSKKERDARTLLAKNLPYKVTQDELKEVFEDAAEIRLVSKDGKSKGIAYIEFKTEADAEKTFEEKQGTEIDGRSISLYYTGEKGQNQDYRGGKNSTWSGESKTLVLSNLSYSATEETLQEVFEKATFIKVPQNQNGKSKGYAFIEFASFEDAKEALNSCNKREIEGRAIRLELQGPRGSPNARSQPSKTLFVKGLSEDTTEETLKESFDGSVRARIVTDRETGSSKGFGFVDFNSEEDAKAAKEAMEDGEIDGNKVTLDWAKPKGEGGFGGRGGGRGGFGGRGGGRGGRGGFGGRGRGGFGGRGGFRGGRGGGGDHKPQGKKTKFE
T23 sequence (P22234 whole entry): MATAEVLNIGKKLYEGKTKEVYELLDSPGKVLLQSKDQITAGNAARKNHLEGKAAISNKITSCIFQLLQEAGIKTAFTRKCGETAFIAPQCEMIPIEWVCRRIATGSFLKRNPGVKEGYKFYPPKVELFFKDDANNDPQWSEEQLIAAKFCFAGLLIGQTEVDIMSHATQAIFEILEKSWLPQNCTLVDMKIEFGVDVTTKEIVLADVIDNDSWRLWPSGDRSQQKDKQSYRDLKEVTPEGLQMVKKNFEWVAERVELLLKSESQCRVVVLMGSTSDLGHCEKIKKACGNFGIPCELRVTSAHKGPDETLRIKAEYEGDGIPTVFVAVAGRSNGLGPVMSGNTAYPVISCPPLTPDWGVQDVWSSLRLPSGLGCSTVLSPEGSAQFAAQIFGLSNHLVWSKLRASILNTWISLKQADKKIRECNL
T6 sequence (Q01469 whole entry): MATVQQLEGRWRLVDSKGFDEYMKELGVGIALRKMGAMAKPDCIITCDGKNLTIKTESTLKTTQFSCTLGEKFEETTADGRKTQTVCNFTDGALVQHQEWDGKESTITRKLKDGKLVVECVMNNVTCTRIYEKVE
T9 sequence (P05455 whole entry): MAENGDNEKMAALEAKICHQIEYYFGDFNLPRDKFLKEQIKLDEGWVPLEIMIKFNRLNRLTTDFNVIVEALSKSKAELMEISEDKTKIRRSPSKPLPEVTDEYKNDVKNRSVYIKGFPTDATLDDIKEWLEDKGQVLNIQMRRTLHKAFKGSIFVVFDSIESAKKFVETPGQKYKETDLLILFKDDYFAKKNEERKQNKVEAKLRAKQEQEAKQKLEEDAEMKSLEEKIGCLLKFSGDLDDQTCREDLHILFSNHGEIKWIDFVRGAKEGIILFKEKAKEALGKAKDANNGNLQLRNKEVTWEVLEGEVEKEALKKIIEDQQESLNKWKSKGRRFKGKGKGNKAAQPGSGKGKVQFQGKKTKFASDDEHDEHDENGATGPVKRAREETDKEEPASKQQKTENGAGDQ
T10 sequence (P09211 whole entry): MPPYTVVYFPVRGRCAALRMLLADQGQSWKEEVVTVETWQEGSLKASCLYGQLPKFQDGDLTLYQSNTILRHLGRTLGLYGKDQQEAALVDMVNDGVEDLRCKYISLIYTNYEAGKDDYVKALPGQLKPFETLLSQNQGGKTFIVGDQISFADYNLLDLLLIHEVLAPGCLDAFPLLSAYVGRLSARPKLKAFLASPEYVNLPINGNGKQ

CCCCCc1ccc(SCCP(=O)(OCC)N2CCC[C@H](N)C2=O)cc1.O=C(O)C(F)(F)F (stereo partly drawn) [Compound 16]
Log2-fold change (16/9) [1]: 0.8558 | Log2-fold change (16/9) [2]: -1.716 | Log2-fold change (16/9) [3]: 0.1121 | Log2-fold change (16/9) [4]: -0.09939 | Log2-fold change (16/9) [5]: -0.8733 | Log2-fold change (16/9) [6]: 0.6319 | Log2-fold change (16/9) [7]: 0.35 | competition of labeling by probe 9 ([8]; 50 µM competitor, 10 µM 9, HEK293 lysates): solely DPP9 was competed | Log2-fold change (16/9) ([8]; protein EEF1A1;EEF1A1P5;EEF1A2): -1.204 | Log2-fold change (16/9) ([8]; protein EIF5A;EIF5AL1): -2.135 | Log2-fold change (16/9) [8, 26]: -0.04142 | Log2-fold change (16/9) ([8]; protein HNRNPH1;HNRNPH2): 0.1964 | Log2-fold change (16/9) ([8]; protein HSPA1A;HSPA1B): -0.2164 | Log2-fold change (16/9) ([8]; protein ID A0A1B0GV53): 0.5692 | Log2-fold change (16/9) ([8]; protein NME1;NME2): -0.08451 | Log2-fold change (16/9) ([8]; protein PABPC1;PABPC3): -0.421 | Log2-fold change (16/9) ([8]; protein PGAM1;PGAM2): -2.097 | Log2-fold change (16/9) ([8]; protein RPLP0;RPLP0P6): -0.5558 | Log2-fold change (16/9) ([8]; protein TUBB4B;TUBB4A): -2.026 | Log2-fold change (16/9) [8, 27]: 0.5881 | Log2-fold change (16/9) [9]: -2.215 | Log2-fold change (16/9) [10]: -1.02 | Log2-fold change (16/9) [11]: -1.311 | Log2-fold change (16/9) [12]: -1.045 | Log2-fold change (16/9) [13]: 0.4135 | Log2-fold change (16/9) [14]: -0.0839 | Log2-fold change (16/9) [15]: -0.3526 | Log2-fold change (16/9) [16]: -2.217 | Log2-fold change (16/9) [17]: -0.3832 | Log2-fold change (16/9) [18]: 0.00104 | Log2-fold change (16/9) [19]: 0.1049 | Log2-fold change (16/9) [20]: 0.8224 | Log2-fold change (16/9) [21]: -0.43 | Log2-fold change (16/9) [22]: -1.716 | Log2-fold change (16/9) [23]: 0.301 | Log2-fold change (16/9) [24]: 0.0197 | Log2-fold change (16/9) [25]: -0.6819

C#CCCCP(=O)(OCC)N1CCCC(N)C1=O.O=C(O)C(F)(F)F (mixture of isomers) [Compound 9]
Log2-fold change (9/DMSO) [1]: -0.9261 | Log2-fold change (9/DMSO) [2]: 1.065 | Log2-fold change (9/DMSO) [3]: -0.6769 | Log2-fold change (9/DMSO) [4]: 0.5243 | Log2-fold change (9/DMSO) [5]: 0.9458 | Log2-fold change (9/DMSO) [6]: -0.287 | Log2-fold change (9/DMSO) [7]: 0.5143 | proteins significantly enriched by the alkyne probe ([8]; 10 µM probe, HEK293 lysates): significant enrichment of only two proteins, namely DPP9 and the off-target prolyl endopeptidase (PREP) | Log2-fold change (9/DMSO) ([8]; protein EEF1A1;EEF1A1P5;EEF1A2): 0.04533 | Log2-fold change (9/DMSO) ([8]; protein EIF5A;EIF5AL1): 1.278 | Log2-fold change (9/DMSO) [8, 26]: 0.83 | Log2-fold change (9/DMSO) ([8]; protein HNRNPH1;HNRNPH2): -0.1168 | Log2-fold change (9/DMSO) ([8]; protein ID A0A1B0GV53): -4.4932 | Log2-fold change (9/DMSO) ([8]; protein NME1;NME2): 0.34 | Log2-fold change (9/DMSO) ([8]; protein PABPC1;PABPC3): 0.8323 | Log2-fold change (9/DMSO) ([8]; protein PGAM1;PGAM2): 1.799 | Log2-fold change (9/DMSO) ([8]; protein TUBB4B;TUBB4A): 1.386 | Log2-fold change (9/DMSO) [8, 27]: -1.664 | Log2-fold change (9/DMSO) [9]: 1.5735 | Log2-fold change (9/DMSO) [10]: 1.078 | Log2-fold change (9/DMSO) [11]: 1.848 | Log2-fold change (9/DMSO) [12]: 1.258 | Log2-fold change (9/DMSO) [13]: 0.2647 | Log2-fold change (9/DMSO) [14]: 0.2166 | Log2-fold change (9/DMSO) [15]: 0.02806 | Log2-fold change (9/DMSO) [16]: 0.889 | Log2-fold change (9/DMSO) [17]: 0.9053 | Log2-fold change (9/DMSO) [18]: -0.3682 | Log2-fold change (9/DMSO) [19]: -0.2121 | Log2-fold change (9/DMSO) [20]: -1.528 | Log2-fold change (9/DMSO) [21]: 0.3807 | Log2-fold change (9/DMSO) [22]: 1.44 | Log2-fold change (9/DMSO) [23]: 0.2495 | Log2-fold change (9/DMSO) [24]: -0.1992 | Log2-fold change (9/DMSO) [25]: 0.6086
